The results in this text go back to EP0207202A1, “Anti-tumor platinum complexes” (Kidani, Yoshinori, priority 1985, dated 1987).

The subject of this test is Leukemia L-1210. The settings on record: for T/C x 100 / number of mice cured after 30 days of the administration of the cells of Leukemia L-1210: 6 mice per group; for T/C x 100: ratio of mean survival time test/control x 100; for number of mice cured after 30 days of the administration of the cells of Leukemia L-1210: parenthesized figure. The source says:
Cells of Leukemia L-1210 were intraperitoneally administered to each of groups of mice(6 animals per group) at a rate of 10^5 cells per mouse, and while breeding the mice of control group, each of the compounds of the present invention was intraperitoneally administered to each mouse of the test groups after one, five and nine days of the administration of the cells, the mice of the test groups being bred similarly to those of control group. After observing the mortality of all the mice, the mean survival time period after the administration of the cells was obtained in each group including control group.

[1] abbreviates: 50 mg/kg intraperitoneally on days 1, 5 and 9 after 10^5 L-1210 cells i.p.
The mark [2] stands for this setting: 100 mg/kg intraperitoneally on days 1, 5 and 9 after 10^5 L-1210 cells i.p.
The mark [3] stands for this setting: 6.25 mg/kg intraperitoneally on days 1, 5 and 9 after 10^5 L-1210 cells i.p.
Setting [4] is: 12.5 mg/kg intraperitoneally on days 1, 5 and 9 after 10^5 L-1210 cells i.p.
Where [5] appears, read: 25 mg/kg intraperitoneally on days 1, 5 and 9 after 10^5 L-1210 cells i.p.
Setting [6] is: 25 mg/kg i.p. on days 1, 5 and 9.
The mark [7] stands for this setting: 50 mg/kg i.p. on days 1, 5 and 9.
Where [8] appears, read: 100 mg/kg i.p. on days 1, 5 and 9.

Where two headings read alike, the source gives them in different places.

“Pt(penta-O-acetyl-D-gluconato)2(trans-dl-AMCHA)·H2O [Compound No. 15]”: the “T/C x 100” value is, setting by setting: under setting [1], 267; under setting [2], 103.
Consider “PtCl(D-glucuronato)(cis-dl-AMCHA)·H2O [Compound No. 2]”, for which the “number of mice cured after 30 days of the administration of the cells of Leukemia L-1210” value (shortened to “number of mice cured”) (6.25 mg/kg i.p. on days 1, 5 and 9) worked out at 2. For the same substance, the “T/C x 100” value by setting is: under setting [3], 271; under setting [4], 189; under setting [5], 156.
Take “Pt(NO3)(tetra-O-acetyl-α-D-glucuronato)(cis-dl-AMCHA) [Compound No. 6]”: the “number of mice cured” value is, setting by setting: under setting [6], 1; under setting [7], 3. Further, the “T/C x 100” value under setting [5] worked out at 281, the “T/C x 100” value under setting [1] is listed as 402 and the “T/C x 100” value under setting [2] turned out to be 120.
On to “Pt(tetra-O-acetyl-α-D-glucuronato)2(cis-dl-AMCHA) [Compound No. 4]”, for which the “T/C x 100” value runs as follows: under setting [5], 145; under setting [1], 198; under setting [2], 277. Besides, the “number of mice cured” value under setting [7] is given as 1 and the “number of mice cured” value under setting [8] came out at 2.
On to “Pt(NO3)(tetra-O-acetyl-β-D-glucuronato)(cis-dl-AMCHA)·3/2H2O [Compound No. 10]”, for which the “number of mice cured” value under setting [6] was 1. Moreover, the “T/C x 100” value runs as follows: under setting [5], 204; under setting [1], 242; under setting [2], 157. Under “Table 2, dose not stated”, the “rate of life prolongation (T/C x 100)” value was found to be 400%.
“PtCl(D-glucuronato)(trans-dl-AMCHA)·2H2O [Compound No. 1]”: the “T/C x 100” value by setting is: under setting [3], 144; under setting [4], 118; under setting [5], 293. For the same substance, under setting [6], the “number of mice cured” value came out at 2.
Take “Pt(NO3)(tetra-O-acetyl-β-D-glucuronato)(trans-dl-AMCHA)·2H2O [Compound No. 9]”: the “number of mice cured” value stood at 1 under setting [7] and 2 under setting [8]. The “T/C x 100” value runs as follows: under setting [1], 253; under setting [2], 206.
